According to the supplement of paper PMC8960247:
± gives the standard error.

Columns and labels:
621-102 (TSC2-deficient) = assay: relative viability vs DMSO; higher = less cytotoxic; conditions: serum: 10% FBS, 72 h
621-103 (TSC2-rescued) = assay: as above; conditions: serum: 10% FBS, 72 h
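Further: immortalized renal angiomyolipoma cells stably carrying empty vector or TSC2, dosed in 384-well plates in DMEM, viability normalized to vehicle-treated wells within each plate.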

Compound	relative viability (621-102 (TSC2-deficient); 0.0001 µM) [%]	relative viability (621-102 (TSC2-deficient); 0.001 µM) [%]	relative viability (621-102 (TSC2-deficient); 0.01 µM) [%]	relative viability (621-102 (TSC2-deficient); 0.1 µM) [%]	relative viability (621-102 (TSC2-deficient); 1 µM) [%]	relative viability (621-102 (TSC2-deficient); 10 µM) [%]	relative viability (621-103 (TSC2-rescued); 0.0001 µM) [%]	relative viability (621-103 (TSC2-rescued); 0.001 µM) [%]	relative viability (621-103 (TSC2-rescued); 0.01 µM) [%]	relative viability (621-103 (TSC2-rescued); 0.1 µM) [%]	relative viability (621-103 (TSC2-rescued); 1 µM) [%]	relative viability (621-103 (TSC2-rescued); 10 µM) [%]
CC(C)OC(=O)C1=CN(C(=O)c2ccc(F)c(F)c2)CC(C)(C)c2c1[nH]c1ccccc21	111 ± 1.3	106.3 ± 0.78	104 ± 1.6	102 ± 6.7	101 ± 2.5	101 ± 3.1	102.7 ± 0.95	104 ± 1.7	98.4 ± 1.8	99 ± 2.6	94.1 ± 5.9	99.22 ± 0.99
CC1(COc2ccc3c(c2)ncn3-c2ccc3cccc(N4CCC(N)CC4)c3n2)COC1	109 ± 1.2	98.7 ± 1.8	109 ± 4.7	98.43 ± 0.71	67.8 ± 1.8	2.96 ± 0.37	96 ± 0.22	111.5 ± 0.64	110 ± 3.6	106 ± 3.9	77.4 ± 2.8	4.95 ± 0.59
CN(C)C(=O)[C@H](O)[C@H](Cc1ccccc1)NC(=O)c1cc2cc(Cl)ccc2[nH]1	103 ± 1.9	94.3 ± 1	111 ± 2.4	110 ± 5.4	89.6 ± 3.6	111.8 ± 0.78	112.8 ± 0.78	108 ± 2.3	108.2 ± 0.39	106 ± 1.7	106 ± 1.5	104 ± 1.8
CN(C)Cc1cccc(N/C(=C2\C(=O)Nc3cc(C(N)=O)ccc32)c2ccccc2)c1	103 ± 1.7	107 ± 0.88	104 ± 2	103 ± 2.6	99.92 ± 0.15	87.26 ± 0.14	99.8 ± 1.5	97.2 ± 1.9	99.2 ± 1.1	97.28 ± 0.78	92.4 ± 6.5	84.9 ± 2.5
CN(C)Cc1cccc(N=C(c2ccccc2)c2c(O)[nH]c3cc(C(=O)N(C)C)ccc23)c1	107 ± 1.5	106 ± 1.2	102 ± 1.4	100.76 ± 0.028	98.5 ± 6.6	93.3 ± 1.4	98.05 ± 0.44	99.6 ± 1.7	98.8 ± 1.2	99.48 ± 0.73	91.7 ± 5.7	47.4 ± 2.2
CN(C)c1ccc(-c2nc3ncc(Cl)c(N4CCN(CC(=O)Nc5nccs5)CC4)c3[nH]2)cc1	104 ± 2.7	96.7 ± 1.2	102 ± 4	105 ± 1.4	101 ± 4.3	49.3 ± 1.4	101 ± 2.5	103.4 ± 0.042	101.06 ± 0.096	100.6 ± 0.64	97.243 ± 0.044	47.5 ± 2.9
CNC(=O)Nc1ccc(-c2nc(N3CC4CCC(C3)O4)c3cnn(C4CCC5(CC4)OCCO5)c3n2)cc1	97.36 ± 0.31	93.4 ± 2.7	76.3 ± 3.4	37.41 ± 0.17	25.6 ± 0.73	9.06 ± 0.58	108 ± 6.1	95.7 ± 2.1	73.8 ± 4.8	44.1 ± 1.1	34.1 ± 0.59	22 ± 0.064
COC(=O)N[C@H](C(=O)N1CCC[C@H]1c1ncc(-c2ccc(-c3ccc(-c4cnc([C@@H]5CCCN5C(=O)[C@@H](NC(=O)OC)C(C)C)[nH]4)cc3)cc2)[nH]1)C(C)C	103 ± 3.2	105 ± 0.22	106 ± 1.6	101 ± 3.8	96.21 ± 0.14	81.1 ± 2	100 ± 2.7	98.82 ± 0.6	100 ± 1.2	102 ± 2.3	99.4 ± 2.4	94.1 ± 1.9
COCC(=O)NC/C=C/c1ccc2ncnc(Nc3ccc(Oc4ccc(C)nc4)c(C)c3)c2c1	100 ± 2.7	97.758 ± 0.079	97.3 ± 1.7	93.9 ± 1.9	98.9 ± 2.8	93.2 ± 2.4	101 ± 1.9	101.6 ± 0.36	103.06 ± 0.024	104 ± 1.2	103.7 ± 0.92	107.8 ± 0.28
COc1cc2c(Nc3ccc(NC(=O)c4ccccc4)cc3)ncnc2cc1OCCCN1CCOCC1	97.1 ± 1.7	91.95 ± 0.3	108 ± 2	90.2 ± 5.2	79.6 ± 3.6	7.78 ± 0.95	104 ± 1.1	111 ± 4.9	104 ± 1.9	105 ± 1.6	95.8 ± 2.5	12.4 ± 0.25
